Data taken from the Kinase Knowledgebase extract (Sharma et al. 2016).

What follows are compounds tested against MAPK14 (human) (UniProt Q16539) (assay: Inhibition of MAPK14 Kinase Activity).
Sequence of MAPK14 (human) (Q16539 whole entry, looked up): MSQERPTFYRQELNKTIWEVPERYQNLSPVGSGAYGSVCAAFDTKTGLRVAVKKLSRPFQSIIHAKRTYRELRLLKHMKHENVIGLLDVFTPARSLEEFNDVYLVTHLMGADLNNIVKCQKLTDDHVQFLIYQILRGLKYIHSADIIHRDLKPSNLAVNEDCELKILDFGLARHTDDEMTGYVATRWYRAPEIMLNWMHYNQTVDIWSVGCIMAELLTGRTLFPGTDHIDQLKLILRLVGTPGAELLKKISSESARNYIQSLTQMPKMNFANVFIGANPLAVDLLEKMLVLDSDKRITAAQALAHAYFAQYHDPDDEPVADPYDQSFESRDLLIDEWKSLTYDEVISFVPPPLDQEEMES

In order of rising IC50:
1. CC[C@@H](C)Nc1ncc(-c2cc(-c3cscc3C)c3nccn3c2)s1  3 nM
2. CC[C@@H](C)Nc1ncc(-c2cc(-c3ccccc3F)c3nccn3c2)s1  3.4 nM
3. CC[C@@H](C)Nc1ncc(-c2cc(-c3ccccc3C)c3nccn3c2)s1  5 nM
4. Cc1cscc1-c1cc(-c2cnc(NC(C)C)s2)cn2ccnc12  5.2 nM
5. CC[C@@H](C)Nc1ncc(-c2cc(-c3ccc(F)cc3F)c3nccn3c2)s1  5.7 nM
6. CC[C@@H](C)Nc1ncc(-c2cc(-c3ccccc3Cl)c3nccn3c2)s1  5.9 nM
7. CCOC(=O)c1cn2cc(-c3cnc(N[C@H](C)CC)s3)cc(-c3ccccc3F)c2n1  6 nM
8. CC(C)Nc1ncc(-c2cc(-c3ccccc3F)c3nncn3c2)s1  13 nM
9. CC(C)Nc1ncc(-c2cc(-c3ccccc3Cl)c3nncn3c2)s1  15 nM
10. CC[C@@H](C)Nc1ncc(-c2cn3ccnc3c(-c3ccccc3F)n2)s1  23 nM
11. CC[C@@H](C)Nc1ncc(-c2cc(-c3ccccc3)c3nc(CC(=O)OC)cn3c2)s1  33 nM
12. Fc1ccc(-c2cc(-c3cnc(NC4CCOCC4)s3)cn3ccnc23)cc1  35.8 nM
13. CNC(=O)c1cn2cc(-c3cnc(NC(C)C)s3)cc(-c3ccccc3)c2n1  37 nM
14. CC(C)Nc1cnc(-c2cc(-c3ccccc3)c3nc(CCO)cn3c2)s1  38 nM
15. CC(C)C(C)Nc1ncc(-c2cc(-c3ccccc3Cl)c3nccn3c2)s1 (configuration not stated)  39 nM
16. CCOCC(C)Nc1ncc(-c2cn3ccnc3c(-c3ccccc3F)n2)s1 (configuration not stated)  40 nM
17. CCCCNc1ncc(-c2cc(-c3ccccc3)c3nc(C(=O)OCC)cn3c2)s1  40 nM
18. CC(C)C(C)Nc1ncc(-c2cc(-c3ccccc3)c3nccn3c2)s1 (configuration not stated)  41.6 nM
19. CC(C)Nc1ncc(-c2cn3ccnc3c(-c3ccccc3)n2)s1  60 nM
20. CC(C)Nc1ncc(-c2cc(-c3cccc(F)c3)c3nncn3c2)s1  91 nM
21. Fc1ccccc1-c1nc(-c2cnc(NC3CCOCC3)s2)cn2ccnc12  109 nM
22. CC(C)Nc1ncc(-c2cc(-c3ccccc3)c3nncn3c2)s1  581 nM
23. CC(C)Nc1ncc(-c2cc(-c3ccc(F)c(Cl)c3)c3nncn3c2)s1  604 nM
24. Cc1c(-c2cc(-c3ccccc3)c3nccn3c2)cnn1-c1ccccc1  630 nM
25. CC(C)Nc1ncc(-c2cc(-c3ccccc3C#N)c3nccn3c2)s1  669 nM
26. CCOC(=O)c1ccccc1-c1cc(-c2cnc(NC(C)C)s2)cn2ccnc12  795 nM
27. CCC(CC)Nc1ncc(-c2cc(-c3cccc(C#N)c3)c3nccn3c2)s1  807 nM
28. CC[C@@H](C)Nc1ncc(-c2cn3ccnc3c(-c3ccccc3O)n2)s1  809 nM
29. COC(=O)Cc1cn2cc(-c3cn[nH]c3)cc(-c3ccccc3)c2n1  924 nM
30. CC(C)Nc1ncc(-c2cc(-c3cccc(C#N)c3)c3nccn3c2)s1  926 nM
31. Cc1ccc(C)c(-c2cc(-c3cnc(NC(C)C)s3)cn3ccnc23)c1  1540 nM
32. Cc1ccccc1-c1cc(-c2cnc(NCCN(C)C)s2)cn2ccnc12  1780 nM
